Converted amounts (≈) assume the structure as drawn.
Experiments:
[1] = test system: Influenza A virus (A/Puerto Rico/8/1934(H1N1)); assay: Antiviral activity against human influenza virus (A/New Caledonia/20/1999 (H1N1)) infected in MDCK cells; format: functional, organism-based, Influenza A virus (A/New Caledonia/20/1999(H1N1))
[2] = test system: Influenza A virus H3N2; assay: Antiviral activity against Influenza virus (A/Panama/2007/99 (H3N2)) infected in MDCK cells; format: functional, organism-based, Influenza A virus (A/Panama/2007/1999(H3N2))
[3] = test system: Influenza B virus; assay: Antiviral activity against Influenza virus (B/Shanghai/361/2002) infected in MDCK cells; format: functional, organism-based; conditions: B/Shanghai/361/2002, MDCK
[4] = test system: Influenza A virus (A/Puerto Rico/8/1934(H1N1)); assay: Antiviral activity against human influenza virus (A/New Caledonia/20/1999 (H1N1)) infected in MDCK cells assessed as sialic acid concentration; format: functional, organism-based, Influenza A virus (A/New Caledonia/20/1999(H1N1))
[5] = test system: Influenza A virus H3N2; assay: Antiviral activity against Influenza virus (A/Panama/2007/99 (H3N2)) infected in MDCK cells assessed as sialic acid concentration; format: functional, organism-based, Influenza A virus (A/Panama/2007/1999(H3N2))
[6] = test system: Influenza B virus; assay: Antiviral activity against Influenza virus (B/Shanghai/361/2002) infected in MDCK cells assessed as sialic acid concentration; format: functional, organism-based; conditions: B/Shanghai/361/2002, MDCK

`CC(=O)N[C@H]1[C@H]([C@H](O)[C@H](O)CO)O[C@](OC[C@H]2O[C@@H](O[C@@H]([C@H](O)[C@H](C=O)NC(C)=O)[C@H](O)CO)[C@H](O)[C@@H](O)[C@H]2O)(C(=O)O)C[C@@H]1O` was tested, and the IC50 [1] was 2000 µg/mL (≈ 2.96 mM), the IC50 [2] was 3000 µg/mL (≈ 4.45 mM) and the IC50 [3] was 10000 µg/mL (≈ 14.8 mM). For the same compound, the IC50 [4] was 3 mM, the IC50 [5] was 4 mM and the IC50 [6] was 14.8 mM.

Reference: ChEMBL document CHEMBL1155943, “Design of a sialylglycopolymer with a chitosan backbone having efficient inhibitory activity against influenza virus infection” (J Med Chem, 2008)
